Laboratory results reported in patent US20250075190A1, “DE NOVO DESIGNED LUCIFERASE” (UNIVERSITY OF WASHINGTON, priority 2022, published 2025).

How the values were obtained:
Type in all cases: biochemical
[1] = tested on: LuxSit-i (de novo designed luciferase; LuxSit variant R60S/A96L/M110V, 60S/96L/98H/110V; SEQ ID NO:2); assay: Michaelis-Menten kinetics of LuxSit-i with DTZ; conditions: substrate DTZ; for Km / Vmax: Tris pH 8.0
Source text: (§1) Synthetic genes and oligonucleotides were purchased from Integrated DNA Technologies or GenScript. The synthetic gene was inserted between NdeI and XhoI sites of a pET29b+ vector, containing an N-terminal hexahistidine tag followed by a TEV protease cleavage site and a C-terminal stop codon. Restriction endonucleases, Q5 PCR polymerase, and T4 ligase were purchased from NEB. Plasmid DNA, PCR products, or digested fragments were purified by Qiagen DNA purification kits. DNA sequences were analyzed by Genewiz. Coelenterazine (CTZ) was purchased from Gold Biotechnology. Diphenylterazine (DTZ), pyridyl diphenylterazine (8pyDTZ), and Furimazine (FRZ) were purchased from MedChemExpress. All other coelenterazine analogs (bis-CTZ: bisdeoxycoelenterazine; f-CTZ: f-Coelenterazine; e-CTZ: e-Coelenterazine-F; PP-CTZ: methoxy e-Coelenterazine; v-CTZ: v-Coelenterazine. All other chemicals were purchased from Sigma-Aldrich or Fisher Scientific and used without further purification. To identify the molecular mass of each protein, intact mass spectra were obtained via reverse-phase LC/MS on an Agilent 6230B TOF on an AdvanceBio RP-Desalting column and subsequently deconvoluted by Bioconfirm software using a […] algorithm. AKTA pure M with UNICORN 6.3.2 Workstation control (GE Healthcare) coupled with a Superdex™ 75 Increase 10/300 GL column was used for size exclusion chromatography. DNA and protein concentrations were determined by a NanoDrop™ small-volume 8 channel UV/vis spectrometer. CD spectra and CD melting experiments were performed by the default setting on a J-1500 Circular Dichroism Spectropolarimeter (Jasco). All luminescence measurements were acquired by a Biotek Synergy Neo2T™ Multi-Mode Plate Reader. To convert relative arbitrary unit (RLU) to the number of photons, Neo2 plate reader was calibrated by determining the chemiluminescence of luminol with known quantum yield in the presence of horseradish peroxidase and hydrogen peroxide in K2CO3 aqueous solution as previously described^45. SDS PAGE and luminescence images were captured by a Bio-Rad ChemiDocT™ XRS+. Images were analyzed using the Fiji image analysis software.
(§2) Lemo21(DE3) strain was used for transformation with the pET29b+ plasmid encoding the gene of interest. Transformed cells were grown for 12 h in TB medium supplemented with kanamycin. Cells were inoculated at 1:50 ratio in 100 mL fresh TB medium, grown at 37° C. for 4 h, and then induced by IPTG for an additional 18 h at 16° C. Cells were harvested by centrifugation at 4,000 g for 10 min and resuspended in 30 mL lysis buffer (20 mM Tris-HCl pH 8.0, 300 mM NaCl, 30 mM imidazole, and Pierce™ Protease Inhibitor Tablets). Cell resuspensions were lysed by sonication for 5 min (10 s per cycle). Lysates were clarified by centrifugation at 24,000 g at 12° C. for 40 min and pre-equilibrated with 1 mL of Ni-NTA nickel agarose at 4° C. for 1 h. The resin was washed twice with 10 mL wash buffer and then eluted in 1 mL elution buffer (20 mM Tris-HCl pH 8.0, 300 mM NaCl, 300 mM imidazole). The eluted proteins were purified by size exclusion chromatography in PBS. Fractions were collected based on A280 trace, snap-frozen in liquid nitrogen, and stored at −80° C.,
(§3) To create libraries of each single amino acid substitution at residues 13, 14, 17, 18, 35, 37, 38, 49, 52, 53, 56, 60, 65, 81, 83, 94, 96, 98, 100, 110, and 112, forward oligos mixture with degenerate codons (NDT, VHG, and TGG=1:1:0.1 ratio) and an overlapped reverse oligo were used to amplify the plasmid of LuxSit. The resulting PCR products were circularized by Gibson Assembly protocol and were subsequently used to transform ElectroMAX™ DH10B Cells. The cells were plated on 150 mm×15 mm LB agar plates supplemented with carbenicillin and L-arabinose, incubated at 37° C. overnight, and left at 4° C. for another 24 h. As described in the screening of luciferase libraries, colony-based screening by spraying DTZ solution was used to identify active colonies. […]. […]

[2] = tested on: LuxSit-f (de novo designed luciferase; LuxSit variant A96M/M110V, 60R/96M/98H/110V; SEQ ID NO:3); assay: Michaelis-Menten kinetics of LuxSit-f with DTZ; conditions: substrate DTZ; for Km / Vmax: Tris pH 8.0
Source text: as §1, §2, §3

[3] = tested on: LuxSit (de novo designed luciferase, parent, 60R/96A/98H/110M; SEQ ID NO:1); assay: Michaelis-Menten kinetics of LuxSit (parent) with DTZ; conditions: substrate DTZ; mean (95% CI), n = 3; Tris pH 8.0
Source text: (§4) Synthetic genes and oligonucleotides were purchased from Integrated DNA Technologies or GenScript. The synthetic gene was inserted between NdeI and XhoI sites of a pET29b+ vector, containing an N-terminal hexahistidine tag followed by a TEV protease cleavage site and a C-terminal stop codon. Restriction endonucleases, Q5 PCR polymerase, and T4 ligase were purchased from NEB. Plasmid DNA, PCR products, or digested fragments were purified by Qiagen DNA purification kits. DNA sequences were analyzed by Genewiz. Coelenterazine (CTZ) was purchased from Gold Biotechnology. Diphenylterazine (DTZ), pyridyl diphenylterazine (8pyDTZ), and Furimazine (FRZ) were purchased from MedChemExpress. […] DNA and protein concentrations were determined by a NanoDrop™ small-volume 8 channel UV/vis spectrometer. […] All luminescence measurements were acquired by a Biotek Synergy Neo2T™ Multi-Mode Plate Reader. To convert relative arbitrary unit (RLU) to the number of photons, Neo2 plate reader was calibrated by determining the chemiluminescence of luminol with known quantum yield in the presence of horseradish peroxidase and hydrogen peroxide in K2CO3 aqueous solution as previously described^45. SDS PAGE and luminescence images were captured by a Bio-Rad ChemiDocT™ XRS+. Images were analyzed using the Fiji image analysis software. […]

[4] = tested on: LuxSit (de novo designed luciferase, SEQ ID NO:1) variant Y14E; assay: Michaelis-Menten kinetics of LuxSit Y14E with DTZ; conditions: substrate DTZ; mean (95% CI), n = 3; Tris pH 8.0
Source text: as §4

[5] = tested on: LuxSit (de novo designed luciferase, SEQ ID NO:1) variant R60C; assay: Michaelis-Menten kinetics of LuxSit R60C with DTZ; conditions: substrate DTZ; mean (95% CI), n = 3; Tris pH 8.0
Source text: as §4

[6] = tested on: LuxSit (de novo designed luciferase, SEQ ID NO:1) variant A96I; assay: Michaelis-Menten kinetics of LuxSit A96I with DTZ; conditions: substrate DTZ; mean (95% CI), n = 3; Tris pH 8.0
Source text: as §4

[7] = tested on: LuxSit (de novo designed luciferase, SEQ ID NO:1) variant A96M; assay: Michaelis-Menten kinetics of LuxSit A96M with DTZ; conditions: substrate DTZ; mean (95% CI), n = 3; Tris pH 8.0
Source text: as §4

[8] = tested on: LuxSit (de novo designed luciferase, SEQ ID NO:1) variant H98N; assay: Michaelis-Menten kinetics of LuxSit H98N with DTZ; conditions: substrate DTZ; mean (95% CI), n = 3; Tris pH 8.0
Source text: as §4

[9] = tested on: LuxSit (de novo designed luciferase, SEQ ID NO:1) variant M110C; assay: Michaelis-Menten kinetics of LuxSit M110C with DTZ; conditions: substrate DTZ; mean (95% CI), n = 3; Tris pH 8.0
Source text: as §4

O=c1c(Cc2ccccc2)nc2c(-c3ccccc3)[nH]c(-c3ccccc3)cn1-2 [DTZ, Diphenylterazine]
apparent Michaelis constant KM ([1]; in words (FIG. 3a)): low μM range
Km ([1]; 100 nM enzyme, Table 3): 2.5 µM
Vmax ([1]; 100 nM enzyme, Table 3): 0.36 photon s^−1 molecule^−1
kcat ([1]; kcat=Vmax/LQY, Table 3): 2.5 s⁻¹
Km ([1]; mean (95% CI), n = 3, Table 4): 2.5 µM
Vmax ([1]; mean (95% CI), n = 3, Table 4): 36.1(33.7-38.6) ×10^−2 photon s^−1 molecule^−1
apparent Michaelis constant KM ([2]; in words (FIG. 3a)): low μM range
Km ([2]; 100 nM enzyme, Table 3): 8.9 µM
Vmax ([2]; 100 nM enzyme, Table 3): 0.20 photon s^−1 molecule^−1
kcat ([2]; kcat=Vmax/LQY, Table 3): 1.8 s⁻¹
Km ([2]; mean (95% CI), n = 3, Table 4): 8.9 µM
Vmax ([2]; mean (95% CI), n = 3, Table 4): 19.7(17.9-21.9) ×10^−2 photon s^−1 molecule^−1
Km [3]: 18.3 µM
Vmax [3]: 0.32(0.29-0.37) ×10^−2 photon s^−1 molecule^−1
Km [4]: 12.6 µM
Vmax [4]: 0.19(0.17-0.21) ×10^−2 photon s^−1 molecule^−1
Km [5]: 45.2 µM
Vmax [5]: 0.57(0.44-0.8) ×10^−2 photon s^−1 molecule^−1
Km [6]: 17.5 µM
Vmax [6]: 1.3(1.1-1.5) ×10^−2 photon s^−1 molecule^−1
Km [7]: 4.8 µM
Vmax [7]: 6.0(5.3-6.9) ×10^−2 photon s^−1 molecule^−1
Km [8]: 29.3 µM
Vmax [8]: 0.17(0.15-0.2) ×10^−2 photon s^−1 molecule^−1
Km [9]: 67.5 µM
Vmax [9]: 0.4(0.3-0.6) ×10^−2 photon s^−1 molecule^−1
